# Measured values as given in patent US12178210B2, “Insect attractant and killing system” (priority 2020, dated 2024).
# Read-outs that look alike come from different tables or passages of the source.
# Settings: 40° C., 15 g, UV8 membrane, 1.6 mm orifice
# Excerpt: All prototype lure devices (i.e., the attractant receptacle and permeable membrane with enclosed volatile insect attractant) were constructed using polypropylene/calcium carbonate film (UV8) for the permeable membrane and Scotchpak™ (3M) polyester laminate film for the impermeable barrier material. Each lure device measured approximately 11.5 cm×5.5 cm with a 1.6 mm ( 1/16 in) diameter spherical punch in the impermeable layer exposing the membrane and an ˜8 mm ( 5/16 in) diameter heat seal around the circumference of the punch (referred to as a ring seal). […] Prior to being deployed the lures were weighed on an analytical balance (Sartorius, Universal; resolution of 0.01 g). Prototype lures were attached to a cord that ran the length of ventilated laboratory fume hood, with 5-8 cm (2-3 in) separating each lure in an open, ventilated room at the indicated temperature (18-20° C. or 39-41° C.). Every 2-3 days the lures were removed from the cord and weighed on the same scale. Lure weight was recorded and the weight loss (g/day) was calculated. In addition to prototype lures, two controls were included in the study consisting of a current Suterra lure product (WHF lure) and a competitor product (Comp. Prod. 1).
compound,measurement,setting,value
"N.NC(=O)O [CM-NR, Ammonium carbamate]",Attractant Release Rate (5-day average per time point),day 5,338.4 mg/day
same,Attractant Release Rate (5-day average per time point),day 10,346.8 mg/day
same,Attractant Release Rate (5-day average per time point),day 15,370.0 mg/day
same,Attractant Release Rate (5-day average per time point),day 20,413.7 mg/day
same,Attractant Release Rate (5-day average per time point),day 25,440.0 mg/day
same,Attractant Release Rate (5-day average per time point),day 30,429.7 mg/day
same,Attractant Release Rate (5-day average per time point),day 35,408.5 mg/day
same,Attractant Release Rate (5-day average per time point),day 40,193.2 mg/day
same,Attractant Release Rate (5-day average per time point),day 45,0.0 mg/day
same,Attractant Release Rate (5-day average per time point),day 49,0.0 mg/day
same,Attractant Release Rate (5-day average per time point),day 55,0.0 mg/day
